Test [1] is filed under the species Oryctolagus cuniculus. The test is described as follows: In vitro inhibition of collagen induced platelet aggregation of rabbit platelet rich plasma. The class given is functional.
The subject of test [2] is Mus musculus. Description: In vivo antithrombotic activity in mice following p.o. administration. Type of test: functional. Conditions: po, read-out: PD50.
Test [3] deals with T1, Serotonin 2 (5-HT2) receptor (Rattus norvegicus, UniProt P30994+P08909+P14842). The test is described as follows: Antagonistic activity against 5-hydroxytryptamine 2 receptor on rat frontal cortex membrane. The class given is functional, tissue-based.
Test [4] deals with T1, Serotonin 2 (5-HT2) receptor. Description: Inhibition of 5-hydroxytryptamine 2 induced vasoconstriction of rat caudal artery. Type of test: tissue-based.
Test [5] deals with Mus musculus. Description: In vivo antithrombotic activity in mice (po). The class given is functional. Conditions: read-out: PD50.

Consider `NC(=O)C1CCN(CCCCOc2ccccc2CCc2ccccc2)CC1`, for which, in test [1] (read-out: IC50), the IC50 (as a rule, the concentration that gives 50% inhibition) is 2.4 µM.

With `CN(C)CC(COc1ccccc1CCc1cccc(Cl)c1)OC(=O)CCC(=O)O` (centres undefined), the ED50 in test [2] amounted to 27 mg/kg. The IC50 in test [1] (read-out: IC50) worked out at 0.8 µM.

For `CN(C)CCCCCOc1ccccc1CCc1ccccc1`, the half-inhibitory concentration (IC50) came to 0.377 µM in test [3] and 1.15 µM in test [1] (read-out: IC50). The Ki (as a rule, the dissociation constant of the complex between target and ligand, obtained from inhibition or displacement) in test [4] was determined as 0.0376 µM.

Take `NCCCCOc1ccccc1CCc1ccccc1`: the IC50 in test [1] (read-out: IC50) was above 50 µM.

Consider `CN(C)CC(O)COc1ccccc1CCc1ccccc1` (centres undefined), for which the half-inhibitory concentration (IC50) is 0.0548 µM in test [3] and 1.2 µM in test [1] (read-out: IC50). In test [4], this molecule had a Ki of 0.0139 µM.

On to `CN(C)CC(COc1ccccc1CCc1ccccc1)OCCC(=O)O` (centres undefined), for which the ED50 in test [2] is 25 mg/kg. Besides, the IC50 in test [1] (read-out: IC50) is 3.3 µM.

Regarding `CN(C)CC(COc1ccccc1CCc1ccccc1)OCC(=O)O` (centres undefined), in test [2], the ED50 amounted to 24 mg/kg. The IC50 in test [1] (read-out: IC50) turned out to be 3.6 µM.

Consider `CN(C)CCCCCCOc1ccccc1CCc1ccccc1`, for which the IC50 in test [3] was found to be 0.1524 µM; in test [1] (read-out: IC50), 1.7 µM. Besides, the inhibition constant (Ki) in test [4] came to 0.0749 µM.

On to `Cc1ccccc1CCc1ccccc1OCCCCN(C)C`, for which the IC50 in test [1] (read-out: IC50) turned out to be 1.2 µM.

Regarding `CN(C)CCCCOc1ccccc1CCc1ccc(F)cc1.Cl`, the ED50 in test [2] was above 50 mg/kg. Besides, the IC50 in test [1] (read-out: IC50) is 0.76 µM.

Regarding `CN(CCCCOc1ccccc1CCc1ccccc1)c1ccccc1`, the IC50 in test [1] (read-out: IC50) is above 50 µM.

Take `c1ccc(CCc2ccccc2OCCCCN2CCNCC2)cc1`: in test [1] (read-out: IC50), the IC50 stood at 2 µM.

Regarding `COc1cccc(CCc2ccccc2)c1OCCCCN(C)C`, in test [5], the ED50 worked out at 40 mg/kg. In addition, in test [1] (read-out: IC50), the IC50 was 2.3 µM.

Turning to `CN(C)CCCCOc1cccc(CCc2ccccc2)c1`, the 50% inhibitory concentration (IC50) came out at 3.3283 µM in test [3] and 19 µM in test [1] (read-out: IC50). In addition, in test [4], the Ki was determined as 0.517 µM.

Turning to `CCCCN(C)CCCCOc1ccccc1CCc1ccccc1`, the IC50 in test [3] was 0.9746 µM; in test [1] (read-out: IC50) it was 3.2 µM. In test [4], this molecule yielded a Ki of 0.0676 µM.

Consider `CN(C)CCOc1ccccc1CCc1ccccc1`, for which the IC50 is 0.0962 µM in test [3] and 0.67 µM in test [1] (read-out: IC50). The same molecule yielded a Ki in test [4] of 0.00633 µM.

Take `CN(C)CCCCOc1ccccc1CCc1ccccc1`: the IC50 in test [3] stood at 0.1154 µM; in test [1] (read-out: IC50) it was 0.7 µM. For the same molecule, the ED50 in test [5] was found to be 26 mg/kg. For the same molecule, in test [4], the Ki came out at 0.00978 µM.

For `CN(CCO)CCCCOc1ccccc1CCc1ccccc1`, the IC50 in test [1] (read-out: IC50) amounted to 1.4 µM.

As to `CNCCCCOc1ccccc1CCc1ccccc1`, the results for the 50% inhibitory concentration (IC50) in test [3] and in test [1] (read-out: IC50) were 0.1565 µM and 4.5 µM, respectively. For the same molecule, the Ki in test [4] was 0.0706 µM.

As to `CN(C)CCCOc1ccccc1CCc1ccc(Cl)cc1.Cl`, the ED50 in test [2] was above 50 mg/kg. Also, the IC50 in test [1] (read-out: IC50) was determined as 0.54 µM.

With `CN(C)CC(COc1ccccc1CCc1cccc(F)c1)OC(=O)CCC(=O)O` (centres undefined), the results for the IC50 in test [3] and in test [1] (read-out: IC50) were 0.1325 µM and 1.2 µM, respectively. Besides, the ED50 in test [2] stood at 27 mg/kg. The molecule also registered a Ki in test [4] of 0.0413 µM.

With `CN(C)CCCCOc1ccccc1CCc1cccc(Cl)c1.Cl`, the ED50 in test [2] is 27 mg/kg. Further, the IC50 in test [1] (read-out: IC50) is 0.53 µM.

For the molecule `CC(=O)Oc1ccccc1C(=O)O` [ASPIRIN], the IC50 in test [1] was 23 µM.

Consider `c1ccc(CCc2ccccc2OCCCCN2CCCC2)cc1`, for which the IC50 in test [1] (read-out: IC50) stood at 0.62 µM.

As to `CCN(CC)CCCCOc1ccccc1CCc1ccccc1`, in test [1] (read-out: IC50), the IC50 is 0.7 µM.

Turning to `CN(C)CC(COc1ccccc1CCc1ccccc1)OC(=O)CCC(=O)O` (centres undefined), the ED50 in test [2] was 27 mg/kg. The IC50 in test [1] (read-out: IC50) amounted to 2.2 µM.

Take `c1ccc(CCc2ccccc2OCCCCN2CCCCC2)cc1`: the IC50 in test [1] (read-out: IC50) came to 2.4 µM.

On to `CN(C)CCCCOc1ccc(CCc2ccccc2)cc1`, for which the figures for the IC50 in test [3] and in test [1] (read-out: IC50) were 1.976 µM and 3.4 µM, respectively. In test [4], this molecule had a Ki of 0.416 µM.

On to `CN(C)CCCOc1ccccc1CCc1ccc(N(C)C)cc1.Cl`, for which the results for the IC50 in test [3] and in test [1] (read-out: IC50) were 0.0536 µM and 0.31 µM, respectively. Further, the ED50 in test [2] amounted to 130 mg/kg. Also, the inhibition constant (Ki) in test [4] was 0.0233 µM.

In the case of `Clc1ccccc1CN1CCc2sccc2C1` [TICLOPIDINE], the ED50 in test [2] was determined as 120 mg/kg.

In the case of `O=C(O)C1CCCN1CCCCOc1ccccc1CCc1ccccc1` (centres undefined), the IC50 in test [1] (read-out: IC50) is 18 µM.

On to `COc1ccccc1CCc1ccccc1OCCCCN(C)C.Cl`, for which, in test [2], the ED50 was 45 mg/kg. For the same molecule, the half-maximal inhibitory concentration (IC50) in test [1] (read-out: IC50) is 0.6 µM.

Turning to `CN(CCCCOc1ccccc1CCc1ccccc1)Cc1ccccc1`, the figures for the IC50 in test [3] and in test [1] (read-out: IC50) were 4.479 µM and above 50 µM, respectively. Also, in test [4], the inhibition constant (Ki) was determined as 0.198 µM.

Regarding `OCCN1CCN(CCCCOc2ccccc2CCc2ccccc2)CC1`, the IC50 in test [1] (read-out: IC50) is 2.2 µM.

For `CN(C)CCCOc1ccc(Cl)cc1CCc1ccccc1`, the values for the IC50 in test [3] and in test [1] (read-out: IC50) were 0.8814 µM and 2.5 µM, respectively. Moreover, the ED50 in test [5] came to 21 mg/kg. In addition, the Ki in test [4] was found to be 0.0257 µM.

Regarding `CN(CCCCOc1ccccc1CCc1ccccc1)CCCC(=O)O`, in test [1] (read-out: IC50), the IC50 was 13 µM.

As to `OC1CCN(CCCCOc2ccccc2CCc2ccccc2)CC1`, in test [1] (read-out: IC50), the 50% inhibitory concentration (IC50) amounted to 0.89 µM.

In the case of `CN(C)CCCCOc1ccccc1CCc1cccc(F)c1.Cl`, in test [2], the ED50 was 27 mg/kg. Further, the IC50 in test [1] (read-out: IC50) is 0.48 µM.

Turning to `COc1cccc(CCc2ccccc2OCC(CN(C)C)OC(=O)CCC(=O)O)c1.Cl` (centres undefined) [SARPOGRELATE HYROCHLORIDE], the IC50 was 0.0513 µM in test [3] and 0.97 µM in test [1] (read-out: IC50). Besides, the ED50 in test [2] is 24 mg/kg. In addition, the Ki in test [4] was found to be 0.0178 µM.

Consider `CN(C)CCCOc1ccccc1CCc1ccc(Cl)c(Cl)c1`, for which, in test [2], the ED50 was 94 mg/kg. In addition, in test [1] (read-out: IC50), the IC50 turned out to be 0.58 µM.

As for `COc1cccc(CCc2ccccc2OCCCCN(C)C)c1.Cl`, the IC50 in test [3] came out at 0.0622 µM; in test [1] (read-out: IC50), 0.53 µM. Moreover, in test [2], the ED50 stood at 19 mg/kg. Besides, in test [4], the Ki amounted to 0.0131 µM.

Consider `CN(C)CCCCOc1ccccc1CCc1ccccc1O`, for which the IC50 in test [1] (read-out: IC50) was found to be 0.96 µM.

Regarding `CN(C)CCCCOc1ccccc1CCc1ccccc1C(=O)O`, the IC50 in test [1] (read-out: IC50) turned out to be 1.5 µM.

On to `CN(CCCCOc1ccccc1CCc1ccccc1)CC(=O)O`, for which, in test [1] (read-out: IC50), the IC50 was found to be 29 µM.

As to `O=C(O)C1CCN(CCCCOc2ccccc2CCc2ccccc2)CC1`, the IC50 in test [1] (read-out: IC50) came out at 6.2 µM.

For the molecule `c1ccc(CCc2ccccc2OCCCCN2CCOCC2)cc1`, the concentration for half-maximal inhibition (IC50) in test [1] (read-out: IC50) was determined as 19 µM.

Take `COc1cccc(CCc2ccccc2OCC(O)CN(C)C)c1` (centres undefined): the IC50 was found to be 0.0125 µM in test [3] and 0.48 µM in test [1] (read-out: IC50). Besides, the ED50 in test [2] was 29 mg/kg. In addition, the Ki in test [4] turned out to be 0.00116 µM.

Take `NC(=O)C1CCCN(CCCCOc2ccccc2CCc2ccccc2)C1` (centres undefined): the IC50 in test [1] (read-out: IC50) came out at 1.4 µM.

As for `CN(C)CCCOc1ccccc1CCc1ccccc1`, the results for the IC50 in test [3] and in test [1] (read-out: IC50) were 0.0338 µM and 0.54 µM, respectively. Also, in test [4], the inhibition constant Ki was determined as 0.00455 µM.

Regarding `CN(C)CCCCOc1ccccc1CCc1ccccc1Cl.Cl`, in test [2], the ED50 was found to be 50 mg/kg. The IC50 in test [1] (read-out: IC50) was found to be 0.5 µM.

For the molecule `CCOc1ccccc1CCc1ccccc1OCCCCN(C)C`, the IC50 in test [1] (read-out: IC50) stood at 0.9 µM.

The values are drawn from ChEMBL document CHEMBL1124807, “Syntheses and platelet aggregation inhibitory and antithrombotic properties of [2-[(omega-aminoalkoxy)phenyl]ethyl]benzenes” (J Med Chem, 1990).
